In ChEMBL document CHEMBL5131389, “PSMA-targeted small-molecule docetaxel conjugate: Synthesis and preclinical evaluation” (Eur J Med Chem, 2022):
Converted amounts (≈) assume the structure as drawn. “And” between values parts separate entries of the source, which are not always exact repeats. Equal values may be shown once. The source made the active and inactive calls. The calls are words filed in the database; no cut-off is given here.

Key:
[1] = Selectivity ratio of CC50 for cytotoxicity against human PC-3 cells to CC50 for cytotoxicity against human 22Rv1 cells
PC-3 [2] = assay: Cytotoxicity against human PC-3 cells assessed as reduction in cell viability measured after 72 hrs by MTT assay; format: functional
CWR22R [3] = assay: Cytotoxicity against human 22Rv1 cells assessed as reduction in cell viability measured after 72 hrs by MTT assay; format: functional
[4] = target: Glutamate carboxypeptidase 2 (Homo sapiens, UniProt Q04609); assay: Inhibition of GCPII (unknown origin)
Sequence of Glutamate carboxypeptidase 2 (Q04609 whole entry): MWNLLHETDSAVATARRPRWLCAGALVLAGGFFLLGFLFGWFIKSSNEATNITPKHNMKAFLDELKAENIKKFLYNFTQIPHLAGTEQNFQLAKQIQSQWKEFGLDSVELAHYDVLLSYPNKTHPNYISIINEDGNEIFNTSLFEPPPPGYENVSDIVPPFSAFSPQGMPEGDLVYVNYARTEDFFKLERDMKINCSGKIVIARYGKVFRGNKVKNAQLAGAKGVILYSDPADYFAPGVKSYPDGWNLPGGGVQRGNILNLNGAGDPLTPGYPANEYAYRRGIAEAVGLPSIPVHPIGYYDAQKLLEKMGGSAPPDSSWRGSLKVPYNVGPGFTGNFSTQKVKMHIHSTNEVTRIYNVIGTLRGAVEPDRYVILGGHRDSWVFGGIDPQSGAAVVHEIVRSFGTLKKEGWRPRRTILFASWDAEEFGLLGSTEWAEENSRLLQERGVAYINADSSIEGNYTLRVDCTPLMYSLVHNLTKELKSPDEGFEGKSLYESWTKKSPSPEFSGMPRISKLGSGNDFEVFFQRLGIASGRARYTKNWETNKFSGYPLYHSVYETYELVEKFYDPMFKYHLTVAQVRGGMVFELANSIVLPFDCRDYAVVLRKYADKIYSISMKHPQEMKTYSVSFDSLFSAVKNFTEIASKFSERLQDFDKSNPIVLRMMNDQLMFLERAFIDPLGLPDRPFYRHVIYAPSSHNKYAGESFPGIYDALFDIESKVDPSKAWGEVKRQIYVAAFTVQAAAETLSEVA

DU-145 [5] = assay: Antitumor activity against human DU-145 cells xenografted in BALB/c nude mouse assessed as reduction in tumor growth index at 24.8 mg/kg, ip measured upto 30 days (reference value: 799 +/- 121.8 %); format: functional; parameters: scale not given: the % may be the effect or the level left; conditions: time <= 30 day
CWR22R [6] = assay: Effect on cell stiffness in human 22Rv1 cells assessed as increase in young's modulus at 1 nM measured after 1 hr by topography based scanning ion-conductance microscopic analysis; format: functional
[7] = Chronic toxicity in rat assessed as change in volume of excreted urine administered intravenously as pluronic F127 formulation at 4 intervals for 21 days and observed 3 weeks post last injection relative to control; conditions: in vivo, iv, 2544 h, time 106 day
[8] = Chronic toxicity in rat assessed as neurological disorder administered intravenously as pluronic F127 formulation at 4 intervals for 21 days and observed 3 weeks post last injection; conditions: in vivo, iv, 2544 h, time 106 day
DU-145 [9] = assay: Antitumor activity against human DU-145 cells xenografted in BALB/c nude mouse assessed as tumor growth inhibition at 24.8 mg/kg, ip measured upto 30 days; format: functional; conditions: DU-145, 720 h, time <= 30 day, read-out: TGI
[10] = Chronic toxicity in rat assessed as change in relative heart mass administered intravenously as pluronic F127 formulation at 4 intervals for 21 days and observed 3 weeks post last injection; format: tissue-based; conditions: in vivo, iv, 2544 h, time 106 day
[11] = Chronic toxicity in rat assessed as change in erythrocytes in blood administered intravenously as pluronic F127 formulation at 4 intervals for 21 days and observed 3 weeks post last injection relative to control; format: cell-based; conditions: iv, 2544 h, time 106 day
[12] = Chronic toxicity in rat assessed as increase in relative spleen mass administered intravenously as pluronic F127 formulation at 4 intervals for 21 days and observed 3 weeks post last injection relative to control; format: tissue-based; conditions: in vivo, iv, 2544 h, time 106 day
DU-145 [13] = assay: Antitumor activity against human DU-145 cells xenografted in BALB/c nude mouse assessed as tumor growth inhibition at 12.4 mg/kg, ip measured upto 30 days; format: functional; conditions: DU-145, 720 h, time <= 30 day, read-out: TGI
[14] = Chronic toxicity in rat assessed as reduction in getting up frequency at 15.16 mg/kg, iv administered as pluronic F127 formulation at 4 intervals for 21 days and observed 3 weeks post last injection; format: organism-based; conditions: in vivo, 2544 h, time 106 day
[15] = Chronic toxicity in rat assessed as increase in relative mass of stomach administered intravenously as pluronic F127 formulation at 4 intervals for 21 days and observed 3 weeks post last injection relative to control; format: tissue-based; conditions: in vivo, iv, 2544 h, time 106 day
[16] = Chronic toxicity in rat assessed as change in alkaline phosphatase level at […], iv administered as pluronic F127 formulation at 4 intervals for 21 days and observed 3 weeks post last injection relative to control; format: organism-based; conditions: in vivo, 2544 h, time 106 day
PC-3 [17] = assay: Effect on cell stiffness in human PC-3 cells assessed as increase in young's modulus at 1 nM measured after 1 hr by topography based scanning ion-conductance microscopic analysis; format: functional
[18] = Acute toxicity in iv dosed ICR mouse assessed as lethal dose; format: organism-based; conditions: in vivo
[19] = Chronic toxicity in rat assessed as decrease in relative mass of testes administered intravenously as pluronic F127 formulation at 4 intervals for 21 days and observed 3 weeks post last injection relative to control; conditions: in vivo, iv, 2544 h, time 106 day
[20] = Aqueous solubility of compound; format: physicochemical
[21] = Chronic toxicity in rat assessed as increase in creatinine concentration at […], iv administered as pluronic F127 formulation at 4 intervals for 21 days and observed 3 weeks post last injection relative to control; format: organism-based; conditions: in vivo, 2544 h, time 106 day
[22] = Chronic toxicity in rat assessed as increase in relative brain mass administered intravenously as pluronic F127 formulation at 4 intervals for 21 days and observed 3 weeks post last injection relative to control; format: tissue-based; conditions: in vivo, iv, 2544 h, time 106 day
CWR22R [23] = assay: Antitumor activity against human 22Rv1 cells xenografted in Balb/c nude mouse assessed as tumor growth inhibition at 10 mg/kg, ip administered daily for 5 days and measured at day 34 relative to control; format: functional; parameters: scale not given: the % may be the effect or the level left; conditions: time 34 day
PC-3 [24] = assay: Induction of ROS generation in human PC-3 cells at 800 mV holding potential measured after 1 hr by patch clamp amplifier based optical inverted microscopic analysis; format: functional, cell-based
[25] = Toxicity in BALB/c nude mouse xenografted with human DU-145 cells assessed as animal death at 12.4 to 24.8 mg/kg, ip measured on day 8; format: organism-based; conditions: in vivo, dose 12.4-24.8 mg/kg, time 8 day, read-out: Activity
[26] = Chronic toxicity in rat assessed as increase in relative kidney weight administered intravenously as pluronic F127 formulation at 4 intervals for 21 days and observed 3 weeks post last injection; format: tissue-based; conditions: in vivo, iv, 2544 h, time 106 day
[27] = Chronic toxicity in rat assessed as increase in relative mass of liver administered intravenously as pluronic F127 formulation at 4 intervals for 21 days and observed 3 weeks post last injection relative to control; format: tissue-based; conditions: in vivo, iv, 2544 h, time 106 day
DU-145 [28] = assay: Antitumor activity against human DU-145 cells xenografted in BALB/c nude mouse assessed as reduction in tumor growth index at 12.4 mg/kg, ip measured upto 30 days (reference value: 799 +/- 121.8 %); format: functional; parameters: scale not given: the % may be the effect or the level left; conditions: time <= 30 day
[29] = Chronic toxicity in rat assessed as increase in relative mass of pancreas administered intravenously as pluronic F127 formulation at 4 intervals for 21 days and observed 3 weeks post last injection relative to control; format: tissue-based; conditions: in vivo, iv, 2544 h, time 106 day
[30] = Chronic toxicity in rat assessed as increase in relative mass of adrenal gland administered intravenously as pluronic F127 formulation at 4 intervals for 21 days and observed 3 weeks post last injection relative to control; format: tissue-based; conditions: in vivo, iv, 2544 h, time 106 day
[31] = Chronic toxicity in Soviet Chinchilla rabbit assessed as animal death administered intravenously as pluronic F127 formulation at 4 intervals for 21 days and observed one week post first injection; parameters: species or system Oryctolagus cuniculus; conditions: in vivo, iv, 168 h, time 7 day
[32] = Chronic toxicity in rat assessed as reduction in grooming frequency at 15.16 mg/kg, iv administered as pluronic F127 formulation at 4 intervals for 21 days and observed 3 weeks post last injection; format: organism-based; conditions: in vivo, 2544 h, time 106 day
[33] = Toxicity in Balb/c nude mouse xenografted with human 22Rv1 cells assessed as animal death at 10 mg/kg, ip measured upto 30 days; format: organism-based, CWR22R; conditions: in vivo, 720 h, time < 30 day
[34] = Chronic toxicity in rat assessed as increase in relative lung mass administered intravenously as pluronic F127 formulation for 4 intervals of 21 days and observed 3 weeks post last injection relative to control; conditions: in vivo, iv, 2544 h, time 106 day
[35] = Chronic toxicity in rat assessed as hair loss administered intravenously as pluronic F127 formulation at 4 intervals for 21 days and observed 3 weeks post last injection; conditions: in vivo, iv, 2544 h, time 106 day

CC(=O)O[C@@]12CO[C@@H]1C[C@H](O)[C@@]1(C)C(=O)[C@H](O)C3=C(C)[C@@H](OC(=O)[C@H](OC(=O)CCCc4cn(CCCNC(=O)[C@H](Cc5ccccc5)NC(=O)[C@H](Cc5ccccc5)NC(=O)CCC(=O)NCCCCCC(=O)N(CCCC[C@H](NC(=O)N[C@@H](CCC(=O)O)C(=O)O)C(=O)O)Cc5ccccc5)nn4)[C@@H](NC(=O)OC(C)(C)C)c4ccccc4)C[C@@](O)([C@@H](OC(=O)c4ccccc4)[C@H]21)C3(C)C (single isomer, unassigned)
Selectivity ratio [1]: 1.5
CC50 (PC-3 [2]): 20 nM
CC50 (CWR22R [3]): 13 nM

[N-]=[N+]=NCCCNC(=O)[C@H](Cc1ccc(O)cc1)NC(=O)[C@H](Cc1ccccc1)NC(=O)CCC(=O)NCCCCCC(=O)N(CCCC[C@H](NC(=O)N[C@@H](CCC(=O)O)C(=O)O)C(=O)O)Cc1cccc(Cl)c1
IC50 [4]: 9 nM

CC(=O)O[C@@]12CO[C@@H]1C[C@H](O)[C@@]1(C)C(=O)[C@H](O)C3=C(C)[C@@H](OC(=O)[C@H](OC(=O)CCCc4cn(CCCNC(=O)[C@@H](Cc5ccccc5)NC(=O)[C@@H](Cc5ccccc5)NC(=O)CCC(=O)NCCCCCC(=O)N(CCCC[C@H](NC(=O)N[C@@H](CCC(=O)O)C(=O)O)C(=O)O)Cc5ccc(Cl)c(F)c5)nn4)[C@@H](NC(=O)OC(C)(C)C)c4ccccc4)C[C@@](O)([C@@H](OC(=O)c4ccccc4)[C@H]21)C3(C)C
Selectivity ratio [1]: 1.8
CC50 (PC-3 [2]): 52 nM
CC50 (CWR22R [3]): 29 nM

CC(=O)O[C@@]12CO[C@@H]1C[C@H](O)[C@@]1(C)C(=O)[C@H](O)C3=C(C)[C@@H](OC(=O)[C@H](O)[C@@H](NC(=O)OC(C)(C)C)c4ccccc4)C[C@@](O)([C@@H](OC(=O)c4ccccc4)[C@H]21)C3(C)C [DOCETAXEL ANHYDROUS]
Activity (DU-145 [5]): 84.8%
Activity (CWR22R [6]): Active
Activity [7]: Toxic
Selectivity ratio [1]: 1
Activity [8]: Toxic
inhibition in vivo at 24.8 mg/kg (DU-145 [9]): 73.5%
CC50 (PC-3 [2]): 1 nM
Activity [10]: Non-Toxic
Activity [11]: Non-Toxic
Activity [12]: Non-Toxic
inhibition in vivo at 12.4 mg/kg (DU-145 [13]): 47.1%
Activity [14]: Toxic
CC50 (CWR22R [3]): 1 nM
Activity [15]: Toxic
Activity [16]: Toxic
Activity (PC-3 [17]): Active
LD50 [18]: 138 mg/kg and 171 µmol/kg
Activity [19]: Non-Toxic
solubility [20]: 3 µg/mL (≈ 3.71 µM)
Activity [21]: Toxic
Activity [22]: Toxic
Activity (CWR22R [23]): 88%
Activity (PC-3 [24]): Active
mortality at 192 h [25]: 100%
Activity [26]: Toxic
Activity [27]: Toxic
Activity (DU-145 [28]): 261.3%
Activity [29]: Toxic
Activity [30]: Toxic
Activity [31]: Toxic
Activity [32]: Toxic
Activity [33]: Toxic
Activity [34]: Toxic
Activity [35]: Toxic
